Test results from US20230285374A1, “THERAPEUTIC METHODS USING VADADUSTAT” (Akebia Therapeutics, Inc., priority 2019, published 2023).

Test system: subjects with anemia and Hemodialysis-Dependent Chronic Kidney Disease (HD-CKD) converting from ESA
Test: Phase 3 randomized, double-blinded, active-controlled study in Hemodialysis-Dependent CKD (HD-CKD), Compound 1 vs darbepoetin alfa, 52 weeks
Format: in vivo, human
Excerpt: This example describes a phase 3 randomized, double-blinded, active-controlled study to evaluate the efficacy and safety of oral Compound 1 for the maintenance treatment of anemia in subjects with Hemodialysis-Dependent Chronic Kidney Disease (HD-CKD) in approximately 300 subjects. Efficacy and safety of Compound 1 was compared with darbepoetin alfa for the maintenance treatment of anemia in subjects with DD-CKD after conversion from current ESA therapy.
Subjects deemed eligible for into the study included those who: • Be at least 20 years of age, inclusive; • Have diagnosis of Chronic Kidney Disease; • Be receiving hemodialysis or hemodialysis filtration at least three (3) times per week for ≥12 weeks before screening; • Be receiving the same formulation of ESA using the same administration route and the same dose interval (the dose interval should be the one described in the package insert for the ESA formulation) within 8 weeks prior to the first day of the screening period, using the dosages described below: Epoetin alfa and epoetin beta and kappa: ≥9,000 IU every weeks Darbepoetin alfa: ≥60 μg every weeks Epoetin beta pegol: ≥250 μg every 4 weeks • Have a mean of the most recent Hb levels at screening in the range of ≥9.5 to ≥12.0 g/dL. • Have a difference of <1.5 g/dL in Hb for the latest two tests in the screening period; • Have serum ferritin values of ≥100 ng/mL or transferrin saturation of ≥20% during the screening period; and • Have folic acid and vitamin B12 values above standard minimum values during the screening period.
Subjects deemed ineligible for inclusion in the study included those who: • Have anemia due to a cause other than CKD; • Have active bleeding or blood loss; • Have received a red blood cell transfusion; • Have uncontrolled hypertension; • Have active ocular fundus disease or cannot undergo an ocular fundus examination; • Have been diagnosed with cardiovascular disease, malignancy, or hemisiderosis;
Average Hb level at weeks 20 and 24 of the treatment period.
Hb level at each treatment visit; and
The proportion of patients within the target Hb range (above: ≥12.0 g/dL; within: 10.0-12.0 g/dL; below: <10.0 g/dL).
Safety endpoints for this study were defined as follows: • Adverse events (AEs); • Adverse drug reactions; and
Other endpoints for this study were defined as follows: • Iron-related parameters: serum ferritin, transferrin saturation (TSAT), total iron-binding capacity (TIBC), hepcidin, serum iron, and monthly dose of iron by any route of administration (oral and intravenous); and • Red blood cell indices.
Noninferiority: Compound 1 was considered noninferior to Darbepoetin alfa if the 95% confidence interval (CI) lower limit for the difference between Compound 1 and Darbepoetin alfa in the Least Squares (LS) Mean of the average Hb at weeks 20 and 24 was more than or equal to the predefined noninferiority margin of −0.75 g/dL. Difference in LS Mean refers to mixed-model repeated measures (MMRM) with an unstructured covariance matrix within patients.
Subjects were randomized 1:1 to either • Compound 1 with an initial dose of 300 mg/once daily and adjusted to 150-600 mg/once daily; or • Darbepoetin alfa (IV) initial dose is as follows:
The aim is to maintain a Hb level of 10.0-12.0 g/dL throughout the study.
Dose Adjustment Algorithm: • Increases in the dose were not allowed to occur more frequently than once every 4 weeks. Decreases in dose were allowed to occur more frequently. Frequent dose adjustments were avoided. • If the Hb rose rapidly, the dose was reduced. • If the Hb fell below 10.0 g/dL, the dose was increased. • If the Hb level exceeded 12.0 g/dL, the dose was reduced.
All subjects start with an initial dose of 300 mg/day at baseline visit. Dose levels of Compound 1 include 150, 300, 450, and 600 mg. Each subject took his/her first dose of study medication at the investigative site at the baseline visit. Thereafter, study medication was taken once daily on an outpatient basis. […]

[1] = week 52 (LOCF) compared to baseline

O=C(O)CNC(=O)c1ncc(-c2cccc(Cl)c2)cc1O [Compound 1, Vadadustat]
Deaths due to AEs (52 weeks): 2 (1.2) n (%)
deaths reported (52 weeks, assessed as not related to study drug): two
LSMean of average Hb, weeks 20 and 24 (HD-CKD patients): 10.61 g/dL
mean Hb level at week 52 (HD-CKD patients): 10.39 g/dL
Difference (VDT-DA) in LSMean of average Hb, weeks 20 and 24 (HD-CKD patients, noninferiority margin −0.75 g/dL): -0.05 g/dL
proportion of patients with Hb levels within the target range of 10.0-12.0 g/dL (baseline): 81.5%
mean MCHC level, change (baseline to week 52): significantly increased
mean MCH level, change (baseline to week 52 (LOCF)): significantly increased
mean MCV level, change (baseline to week 52 (LOCF)): significantly increased
mean RDW, change (baseline to week 52 (LOCF)): significantly decreased
mean hepcidin level, change (baseline to week 52 (LOCF)): significantly decreased
mean total iron-binding capacity (TIBC), change (baseline to week 52 (LOCF)): significantly increased
LSMean Hb levels at week 52, subgroup analysis by patient background (dose adjustment 150-600 mg/day, target range 10.0-12.0 g/dL): maintained within the target range of 10.0-12.0 g/dL irrespective of the patient backgrounds
Adverse drug reaction (human, in vivo, 52 weeks): 18 (11.1) n (%)
Cardiovascular event, cardiac failure (AE of special interest) (human, in vivo, 52 weeks): 13 (8.0) n (%)
Diarrhea (human, in vivo, 52 weeks): 25 (15.4) n (%)
Discontinuation due to AEs (human, in vivo, 52 weeks): 16 (9.9) n (%)
Dose reduction or interruption of study drug due to AEs (human, in vivo, 52 weeks): 13 (8.0) n (%)
Hyperkalemia (AE of special interest) (human, in vivo, 52 weeks): 1 (0.6) n (%)
Malignancy (AE of special interest) (human, in vivo, 52 weeks): 7 (4.3) n (%)
Nasopharyngitis (human, in vivo, 52 weeks): 74 (45.7) n (%)
Pulmonary hypertension (AE of special interest) (human, in vivo, 52 weeks): 0 (0.0) n (%)
Retinal disorder (AE of special interest) (human, in vivo, 52 weeks): 21 (13.0) n (%)
Retinal hemorrhage (human, in vivo, 52 weeks): 9.9%
Serious AEs (human, in vivo, 52 weeks): 41 (25.3) n (%)
Serious adverse drug reaction (human, in vivo, 52 weeks): 0 (0.0) n (%)
Shunt stenosis (human, in vivo, 52 weeks): 23 (14.2) n (%)
Subjects with ≥ 1 AE (human, in vivo, 52 weeks): 154 (95.1) n (%)
diarrhea (human, in vivo, 52 weeks): 15.4%
incidence of AEs (human, in vivo, 52 weeks): 95.1%
incidence of serious AEs (human, in vivo, 52 weeks): 25.3%
nasopharyngitis (human, in vivo, 52 weeks): 45.7%
shunt stenosis (human, in vivo, 52 weeks): 14.2%
patients with a rapid rise in Hb levels (>2 g/dL/4 weeks) (in vivo): No patients
proportion of patients with an Hb excursion of ≥12 g/dL (in vivo): 25.3%
proportion of patients with an Hb excursion of ≥13 g/dL (in vivo): 3.7%
proportion of patients with Hb levels within the target range of 10.0-12.0 g/dL (week 24): 75.4%
proportion of patients with Hb levels within the target range of 10.0-12.0 g/dL (week 52): 75.7%
TSAT, change [1]: no significant differences
serum ferritin, change [1]: no significant differences
patients maintained within the target Hb range (weeks 24 and 52, dose adjusted per algorithm): approximately 80%
